This is an account of results in ChEMBL document CHEMBL1129532, “Geranylgeranyl diphosphate-based inhibitors of post-translational geranylgeranylation of cellular proteins” (J Med Chem, 1996).

A word on the IC50: it is the midpoint of a concentration-inhibition curve. The term residual activity denotes the signal under treatment as a percentage of the control signal. Read a high residual activity as much activity left.

In experiment [1] the target is T1, Geranylgeranyl transferase type I (Homo sapiens, UniProt P49354+P53609). As to the kind of experiment: Inhibition of geranylgeranylation of P21rap in human PC-3 prostate cancer cells. In kind it is functional, cell-based.
For experiment [2], the target named is PC-3 cells (Homo sapiens). The experiment in a line: Inhibition of human PC-3 prostate cancer cell line proliferation.
In experiment [3] the target is T1, Geranylgeranyl transferase type I. As to the kind of experiment: Inhibition of geranylgeranylation of P21rap in human PC-3 prostate cancer cells; values are per cent of control.

On to `CCOP(=O)(O)CC(=O)NOC/C=C(\C)CC/C=C(\C)CC/C=C(\C)CCC=C(C)C`, for which the IC50 in experiment [1] came out at 40.2 µM; in experiment [2] it was 35.1 µM.

On to `CC(C)=CCC/C(C)=C/CC/C(C)=C/CC/C(C)=C/COC(=O)NS(N)(=O)=O`, for which the IC50 in experiment [1] was 28.2 µM; in experiment [2], 22.2 µM. Moreover, the residual activity in experiment [3] amounted to 10.8%.
